Data from EP0044212B1, “Herbicidal o-alkylsulfonyloxy- and o-alkylsulfonylamino-benzenesulfonamides” (E.I. DU PONT DE NEMOURS AND COMPANY, priority 1980, dated 1982).

Assays:
[1] = tested on: Oats; assay: Test C pre-emergence on Fallsington silt loam soil; format: in vivo, Clinton oats; details: 0.03 kg/ha, 28 days
Source text: (§1) The high herbicidal activity of two of the compounds from within the scope of the invention is evident from the results obtained in this test. The experiment concerned pre-emergence applications on soil. The containers used were 25 cm diameter plastic pots filled with Fallsington silt loam. One set of pots was planted to weeds, the seeds of which were uniformly mixed with the top 1.2 cm layer of soil. The species selected were: johnsongrass (Sorghum halepense), barnyardgrass (Echinochloa crusgalli), crabgrass (Digitaria sanguinalis), giant foxtail (Setaria faberii), velvetleaf (Abutilon theophrasti), jimsonweed (Datura stramonium), mustard (Brassica arvensis), and pigweed (Amaranthus retroflexus). Another set of pots were planted to the following crops with from one to four species per pot: corn (planting depth 3.7 cm), cotton, soybeans, sunflower, Clinton oats, wheat, Black Valentine beans, rice, sorghum, peas, flax, and peanuts (all at 2.5 cm depth), cucumbers, cabbage, alfalfa, safflower, sugarbeets, tomato, spinach, barley, and Kentucky bluegrass (all at 1.2 cm depth). Immediately after planting, the test chemical was applied to the soil surfaces dissolved in a non-phytotoxic solvent. One pot from the weed phase and one of each of the crop species were left untreated for the purpose of comparison. […]

[2] = tested on: Cucumber; assay: Test C pre-emergence on Fallsington silt loam soil; format: in vivo, cucumbers; details: 0.03 kg/ha, 28 days
Source text: as §1

[3] = tested on: Velvetleaf; assay: Test F over-the-top soil/foliage treatment; format: in vivo, Abutilon theophrasti; details: soil/foliage spray, ~14 days
Method: The test chemicals, dissolved in a non-phytotoxic solvent, were applied in an overall spray to the foliage and surrounding […] of selected plant species. […] Approximately fourteen days after treatment, all species were visually compared to untreated controls and rated for response to treatment.
All plant species were seeded in Woodstown sandy loam soil and grown in a greenhouse. The following species were grown in soil contained in plastic pots (25 cm diameter by 13 cm deep): soybeans, cotton, alfalfa, corn, rice, wheet, sorghum, velvetleaf (Abutilon theophrasti), sesbania (Sesbania exaltata), Cassia (Cassia tora), morningglory (Ipomoea hederacea), jimsonweed (Datura stramonium), cocklebur (Xanthium pensylvanicum), crabgrass (Digitaria spp.), nutsedge (Cyperus rotundus), barnyardgrass (Echinochloa crusgalli), giant foxtail (Setaria faberii) and wild oats (Avena fatua). The following species were grown in soil in a paper cup (12 cm diameter by 13 cm deep): sunflower, sugarbeets, and mustard. All plants were sprayed approximately 14 days after planting.

[4] = tested on: Barley; assay: Test D pre-/post-emergence weed control in cereals; format: in vivo, Hordeum vulgarel; details: 20 days
Source text: (§2) Two ten-inch in diameter plastic pans lined with polyethylene liners were filled with prepared Fallsington slit loam soil. One pan was planted with seeds of wheat (Triticum aestivum), barley (Hordeum vulgarel, wild oats (Avena fatua), downy brome (Bromus tectorum), cheatgrass (Bromus secalinus), blackgrass (Alopecurus myosuroides), annual bluegrass (Poa annual, green foxtail (Setaria viridis), quack grass (Agropyron repens), Italian ryegrass (Lolium multiflorum) and ripgut brome (Bromus rigidus). The other pan was planted with seeds of Russian thistle (Salsola kali), tansy mustard (Descuraina pinnata), smartweed (Polygonum pensylvanicum), tumble mustard (Sisymbrium altissium) kochia (Kochia scoparia), shepherd's purse (Capsella bursa-pastoris), Matricaria inodora, black nightshade (Solanum nigrum), yellow rocket (Barbarea vulgaris), wild mustard (Brassica kaber) and wild buckwheat (Polygonum convolvulus). The above two pans were treated pre-emergence. At the same time two pans in which the above plant species were growing were treated post-emergence. Plant height at the time of treatment ranged from 1-15 cm depending on plant species.
(§3) The compounds applied were diluted with a non-phytotoxic solvent and sprayed over-the-top of the pans. An untreated control and a solvent alone control were included for comparison. All treatments were maintained in the greenhouse for 20 days at which time the treatments were compared to the controls and the effects visually rated. The recorded data, presented in Table D, indicate that certain compounds from within the scope of the invention have utility for pre- and/or post-emergence weed control in cereal crops such as wheat and barley.

[5] = tested on: Wild Oats; assay: Test D pre-/post-emergence weed control in cereals; format: in vivo, Avena fatua; details: 20 days
Source text: as §2, §3

[6] = tested on: Downy Brome; assay: Test D pre-/post-emergence weed control in cereals; format: in vivo, Bromus tectorum; details: 20 days
Source text: as §2, §3

[7] = tested on: Cheatgrass; assay: Test D pre-/post-emergence weed control in cereals; format: in vivo, Bromus secalinus; details: 20 days
Source text: as §2, §3

[8] = tested on: Russian Thistle; assay: Test D pre-/post-emergence weed control in cereals; format: in vivo, Salsola kali; details: 20 days
Source text: as §2, §3

[9] = tested on: Tansy Mustard; assay: Test D pre-/post-emergence weed control in cereals; format: in vivo, Descuraina pinnata; details: Pre-Emergence; 0.015 kg/ha; 20 days
Source text: as §2, with “Plant height at the time of treatment ranged from 1-15 cm depending on plant species.” left out
(§4) The compounds applied were diluted with a non-phytotoxic solvent and sprayed over-the-top of the pans. […] The recorded data, presented in Table D, indicate that certain compounds from within the scope of the invention have utility for pre- and/or post-emergence weed control in cereal crops such as wheat and barley.

[10] = tested on: Tumble Mustard; assay: Test D pre-/post-emergence weed control in cereals; format: in vivo, Sisymbrium altissium; details: 20 days
Source text: as §2, §3

[11] = tested on: Shepherd's Purse; assay: Test D pre-/post-emergence weed control in cereals; format: in vivo, Capsella bursa-pastoris; details: 20 days
Source text: as §2, with “Plant height at the time of treatment ranged from 1-15 cm depending on plant species.” left out
as §4

[12] = tested on: Black Nightshade; assay: Test D pre-/post-emergence weed control in cereals; format: in vivo, Solanum nigrum; details: 0.015 kg/ha, 20 days
Source text: as §2, with “Plant height at the time of treatment ranged from 1-15 cm depending on plant species.” left out
as §4

[13] = tested on: Yellow Rocket; assay: Test D pre-/post-emergence weed control in cereals; format: in vivo, Barbarea vulgaris; details: 0.06 kg/ha, 20 days
Source text: as §2, with “Plant height at the time of treatment ranged from 1-15 cm depending on plant species.” left out
as §4

[14] = tested on: Wild Buckwheat; assay: Test D pre-/post-emergence weed control in cereals; format: in vivo, Polygonum convolvulus; details: Pre-Emergence; 0.015 kg/ha; 20 days
Source text: as §2, with “Plant height at the time of treatment ranged from 1-15 cm depending on plant species.” left out
as §4

[15] = tested on: Arrowhead; assay: Test E application to paddy water after transplanting of rice; format: in vivo, Sagittaria spp.
Source text: Test samples were formulated and applied directly to the paddy water three days after transplanting of rice. The test was maintained in a greenhouse, and plant response ratings were taken at the stated intervals after application.

[16] = tested on: Rice; assay: Test F over-the-top soil/foliage treatment; format: in vivo; details: soil/foliage spray, ~14 days
Procedure, shortened: (§5)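 Plants were raised in Woodstown sandy loam in the greenhouse and sprayed about 14 days after planting with test chemicals dissolved in a non-phytotoxic solvent, applied over foliage and surrounding soil. Response was rated visually against untreated controls roughly fourteen days after treatment.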

[17] = tested on: Soybeans; assay: Test F over-the-top soil/foliage treatment; format: in vivo; details: for Soybeans response rating: soil/foliage spray, ~14 days
Procedure, shortened: as §5

SMILES: COc1cc(OC)nc(NC(=O)NS(=O)(=O)c2ccccc2OS(C)(=O)=O)n1 [Compound 1, N-[(4,6-Dimethoxypyrimidin-2-yl)aminocarbonyl]-2-hydroxybenzenesulfonamide, methanesulfonate]
- Oats response rating [1]: 4G
- Cucumber response rating [2]: 5G

SMILES: Cc1cc(C)nc(NC(=O)NS(=O)(=O)c2ccccc2OS(C)(=O)=O)n1 [Compound 3, N-[(4,6-dimethylpyrimidin-2-yl)aminocarbonyl]-2-hydroxybenzenesulfonamide, methanesulfonate]
- Velvetleaf response rating ([3]; 0.003 kg/ha): 7G
- Velvetleaf response rating ([3]; 0.015 kg/ha): 5G

SMILES: CCCS(=O)(=O)Oc1ccccc1S(=O)(=O)NC(=O)Nc1nc(OC)cc(OC)n1 [Compound 36, N-[(4,6-dimethoxypropimidin-2-yl)aminocarbonyl]-2-hydroxybenzenesulfonamide, 1-propanesulfonate]
- Barley response rating ([4]; Post-Emergence, 0.015 kg/ha): 0
- Barley response rating ([4]; Post-Emergence, 0.06 kg/ha): 0
- Barley response rating ([4]; Pre-Emergence, 0.015 kg/ha): 0
- Barley response rating ([4]; Pre-Emergence, 0.06 kg/ha): 0
- Wild Oats response rating ([5]; Post-Emergence, 0.015 kg/ha): 0
- Wild Oats response rating ([5]; Post-Emergence, 0.06 kg/ha): 0
- Wild Oats response rating ([5]; Pre-Emergence, 0.015 kg/ha): 0
- Wild Oats response rating ([5]; Pre-Emergence, 0.06 kg/ha): 0
- Downy Brome response rating ([6]; Post-Emergence, 0.015 kg/ha): 0
- Downy Brome response rating ([6]; Post-Emergence, 0.06 kg/ha): 3G
- Downy Brome response rating ([6]; Pre-Emergence, 0.015 kg/ha): 3G
- Downy Brome response rating ([6]; Pre-Emergence, 0.06 kg/ha): 6G
- Cheatgrass response rating ([7]; Post-Emergence, 0.015 kg/ha): 1G
- Cheatgrass response rating ([7]; Pre-Emergence, 0.015 kg/ha): 7G
- Cheatgrass response rating ([7]; Pre-Emergence, 0.06 kg/ha): 10C
- Russian Thistle response rating ([8]; Post-Emergence, 0.015 kg/ha): 0
- Russian Thistle response rating ([8]; Post-Emergence, 0.06 kg/ha): 2G
- Russian Thistle response rating ([8]; Pre-Emergence, 0.015 kg/ha): 0
- Russian Thistle response rating ([8]; Pre-Emergence, 0.06 kg/ha): 1G
- Tansy Mustard response rating [9]: 2G
- Tumble Mustard response rating ([10]; Post-Emergence, 0.015 kg/ha): 10C
- Tumble Mustard response rating ([10]; Post-Emergence, 0.06 kg/ha): 10C
- Tumble Mustard response rating ([10]; Pre-Emergence, 0.015 kg/ha): 5G
- Shepherd's Purse response rating ([11]; Post-Emergence, 0.06 kg/ha): 10C
- Shepherd's Purse response rating ([11]; Pre-Emergence, 0.015 kg/ha): 7G
- Black Nightshade response rating ([12]; Post-Emergence): 2G
- Black Nightshade response rating ([12]; Pre-Emergence): 4G
- Yellow Rocket response rating ([13]; Post-Emergence): 10C
- Yellow Rocket response rating ([13]; Pre-Emergence): 10C
- Wild Buckwheat response rating [14]: 3G
- Arrowhead*** 8 Weeks ([15]; 25 g/ha in paddy water): 0
- Arrowhead*** 8 Weeks ([15]; 100 g/ha in paddy water): 0

SMILES: CCCS(=O)(=O)Oc1ccccc1S(=O)(=O)NC(=O)Nc1nc(C)nc(OC)n1 [Compound 39, 2-hydroxy-N-[(4-methoxy-6-methyl-1,3,5-triazin-2-yl)aminocarbonyl]benzenesulfonamide, 1-propanesulfonate]
- Rice response rating ([16]; 0.007 kg/ha): 2G
- Rice response rating ([16]; 0.03 kg/ha): 4G
- Rice response rating ([16]; 0.06 kg/ha): 0
- Rice response rating ([16]; 0.12 kg/ha): 0
- post-emergence control of weeds in soybeans ([17]; conclusion from Test F): has utility for the post-emergence control of weeds in soybeans
- Soybeans response rating ([17]; 0.007 kg/ha): 0
- Soybeans response rating ([17]; 0.03 kg/ha): 4G
